Here are results for two molecules from ChEMBL document CHEMBL1131899, “First fatty acylated dipeptides to affect muscarinic receptor ligand binding” (Bioorg Med Chem Lett, 1999).

SMILES strings stand for the structures. Where a SMILES comes first, the peptide text is derived from it. The star is where a group is joined. Palmitoyl = CCCCCCCCCCCCCCCC(=O)*; Myristoyl = CCCCCCCCCCCCCC(=O)*; OBn = c1ccc(CO*)cc1

Assay [1] concerns the target T1, Muscarinic acetylcholine receptor M2 (Homo sapiens) (UniProt P08172).
T1 sequence (whole entry): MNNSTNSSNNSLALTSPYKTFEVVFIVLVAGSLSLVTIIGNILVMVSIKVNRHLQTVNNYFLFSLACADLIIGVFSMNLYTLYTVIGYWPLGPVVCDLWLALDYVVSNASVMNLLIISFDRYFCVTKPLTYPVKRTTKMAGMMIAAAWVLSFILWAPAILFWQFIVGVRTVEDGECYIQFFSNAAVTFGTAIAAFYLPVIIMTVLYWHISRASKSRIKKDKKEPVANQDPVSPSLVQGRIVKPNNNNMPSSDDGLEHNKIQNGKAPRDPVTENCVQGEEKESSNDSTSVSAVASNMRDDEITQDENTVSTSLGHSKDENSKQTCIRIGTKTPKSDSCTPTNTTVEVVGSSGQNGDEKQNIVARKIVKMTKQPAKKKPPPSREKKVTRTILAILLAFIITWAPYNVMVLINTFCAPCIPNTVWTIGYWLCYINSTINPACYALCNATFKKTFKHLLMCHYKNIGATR
As to the kind of experiment: (§1) Binding of [3H]QNB to HM2 receptor was evaluated by saturation binding assay.

Assay [2] deals with T2, Muscarinic acetylcholine receptor M1 (Homo sapiens) (UniProt P11229).
T2 sequence (whole entry): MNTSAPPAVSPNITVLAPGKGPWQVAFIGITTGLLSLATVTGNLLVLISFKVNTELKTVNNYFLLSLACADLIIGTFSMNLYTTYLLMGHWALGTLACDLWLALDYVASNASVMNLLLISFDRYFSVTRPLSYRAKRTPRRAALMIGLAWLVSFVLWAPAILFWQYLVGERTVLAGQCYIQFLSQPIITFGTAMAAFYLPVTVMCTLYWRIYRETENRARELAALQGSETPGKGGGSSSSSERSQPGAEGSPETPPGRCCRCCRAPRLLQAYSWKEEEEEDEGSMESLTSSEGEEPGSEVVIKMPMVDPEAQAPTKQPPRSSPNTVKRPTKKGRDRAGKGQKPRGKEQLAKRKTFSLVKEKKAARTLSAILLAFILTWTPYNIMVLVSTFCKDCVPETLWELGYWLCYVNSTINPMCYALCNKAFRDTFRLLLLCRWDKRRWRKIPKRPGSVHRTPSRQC
As to the kind of experiment: (§2) Binding of [3H]QNB to HM1 receptor was evaluated by saturation binding assay.

In assay [3] the target is T3, Muscarinic acetylcholine receptor M2 (Homo sapiens, UniProt P08172).
T3 sequence (P08172 whole entry): T1 sequence (whole entry)
The description is as §1.

The target in assay [4] is T4, Muscarinic acetylcholine receptor M1 (Homo sapiens, UniProt P11229).
T4 sequence (P11229 whole entry): T2 sequence (whole entry)
The assay is described as §2.

In the case of `CCCCCCCCCCCCCCCC(=O)OC[C@H](NC(=O)CNC(=O)CCCCCCCCCCCCC)C(=O)OCc1ccccc1` (Myristoyl-Gly-Ser(Palmitoyl)-OBn), the Bmax in assay [1] stood at 1.8 pmol/mg; in assay [2], 1.2 pmol/mg. Also, the figures for the Kd in assay [3] and in assay [4] were 1.78 nM and 0.03 nM, respectively.
The like results for `CCCCCCCCCCCCCC(=O)NCC(=O)N[C@@H](CO)C(=O)OCc1ccccc1` (Myristoyl-Gly-Ser-OBn) were, in that order, 0.8 pmol/mg, 1.7 pmol/mg, 0.15 nM and 0.04 nM.

As a reminder, the Kd is the constant that tells how readily two partners part at equilibrium. A higher Kd goes with weaker binding.
